According to US20230011869A1 (Hoffmann-La Roche Inc., priority 2018, published 2023):
Where a name gives a salt, the structure may show the parent alone.

tested on: Acinetobacter baumannii ATCC17961; test: Antimicrobial susceptibility testing: 90% growth inhibitory concentration (IC90) determination, Iso-Sensitest broth; format: cell-based; details: Acinetobacter baumannii, ATCC17961, 16 h, 90% growth inhibitory concentration, Acinetobacter baumannii ATCC17961, Iso-Sensitest broth, OD 600 nm over 16 h; read-out: ATCC17961 IC90
Protocol: Antimicrobial Susceptibility Testing:
90% Growth Inhibitory Concentration (IC90) Determination
The in vitro antimicrobial activity of the compounds was determined according to the following procedure:
The assay used a 10-points Iso-Sensitest broth medium to measure quantitatively the in vitro activity of the compounds against Acinetobacter baumannii ATCC17978 and Acinetobacter baumannii ATCC17961.
Stock compounds in DMSO were serially twofold diluted (e.g. range from 50 to 0.097 μM final concentration) in 384 wells microtiter plates and inoculated with 49 μl the bacterial suspension in Iso-Sensitest medium to have a final cell concentration of 5×10^(5) CFU/ml in a final volume/well of 50 ul/well. Microtiter plates were incubated at 35±2° C.
Bacterial cell growth was determined with the measurement of optical density at λ=600 nm each 20 minutes over a time course of 16 h. Growth inhibition was calculated during the logarithmic growth of the bacterial cells with determination of the concentration inhibiting 50% (IC50) and 90% (IC90) of the growth.
Table 1 provides the 90% growth inhibitory concentrations (IC90) in micromoles per liter of the compounds of present invention obtained against the strain Acinetobacter baumannii ATCC17978 and Acinetobacter baumannii ATCC17961.

IC90 | Structure (SMILES)
330 nM | COc1ccc(-c2cnc3c(Nc4ccc(C(=O)N5CCN(C(=O)[C@]67CNCC[C@H]6OC(C)(C)O7)CC5)c(C)c4)nccn23)c(F)c1F (stereo in doubt) [Example 577, rel-(4-(4-((3-(2,3-difluoro-4-methoxyphenyl)imidazo[1,2-a]pyrazin-8-yl)amino)-2-methylbenzoyl)piperazin-1-yl)((3aR,7aS)-2,2-dimethyltetrahydro-[1,3]dioxolo[4,5-c]pyridin-3a(4H)-yl)methanone]
649 nM | COc1ccc(-c2cnc3c(Nc4ccc(C(=O)N5CCN(C(=O)[C@@]67CNCC[C@@H]6OC(C)(C)O7)CC5)c(C)c4)nccn23)c(F)c1F (stereo in doubt) [Example 578, rel-(4-(4-((3-(2,3-difluoro-4-methoxyphenyl)imidazo[1,2-a]pyrazin-8-yl)amino)-2-methylbenzoyl)piperazin-1-yl)((3aR,7aS)-2,2-dimethyltetrahydro-[1,3]dioxolo[4,5-c]pyridin-3a(4H)-yl)methanone]
82 nM | COc1ccc(-c2cnc3c(Nc4ccc(C(=O)N5CCC(CN)CC5)c(C)c4)nccn23)cc1 [Example 19, (4-(aminomethyl)piperidin-1-yl)(4-((3-(4-methoxyphenyl)imidazo[1,2-a]pyrazin-8-yl)amino)-2-methylphenyl)methanone hydrochloride]
91 nM | COc1ccc(-c2cnc3c(Nc4ccc(C(=O)N5CCN(C(=O)[C@@H]6CC(C)(C)CN6)CC5)c(C)c4)nccn23)c(F)c1F [Example 76, (S)-(4-(4-((3-(2,3-difluoro-4-methoxyphenyl)imidazo[1,2-a]pyrazin-8-yl)amino)-2-methylbenzoyl)piperazin-1-yl)(4,4-dimethylpyrrolidin-2-yl)methanone hydrochloride]
83 nM | COc1ccc(-c2cnc3c(Nc4ccc(C(=O)N5CCN(C(=O)[C@@H]6CCC(C)(C)N6)CC5)c(C)c4)nccn23)c(F)c1F [Example 77, (S)-(4-(4-((3-(2,3-difluoro-4-methoxyphenyl)imidazol[1,2-a]pyrazin-8-yl)amino)-2-methylbenzoyl)piperazin-1-yl)(5,5-dimethylpyrrolidin-2-yl)methanone hydrochloride]
167 nM | COc1ccc(-c2cnc3c(Nc4ccc(C(=O)N5CCN(C(=O)[C@@H]6NCC[C@@H]6O)CC5)c(C)c4)nccn23)c(F)c1F [Example 79, [4-[[3-(2,3-difluoro-4-methoxyphenyl)imidazo[1,2-a]pyrazin-8-yl]amino]-2-methylphenyl]-[4-[(2R,3S)-3-hydroxypyrrolidine-2-carbonyl]piperazin-1-yl]methanone;hydrochloride]
81 nM | COc1ccc(-c2cnc3c(Nc4ccc(C(=O)N5CCN(C(=O)C6(C)CCCN6)CC5)c(C)c4)nccn23)c(F)c1F (stereo not shown) [Example 80, (4-(4-((3-(2,3-difluoro-4-methoxyphenyl)imidazo[1,2-a]pyrazin-8-yl)amino)-2-methylbenzoyl)piperazin-1-yl)(2-methylpyrrolidin-2-yl)methanone hydrochloride]
106 nM | COc1ccc(-c2cnc3c(Nc4ccc(C(=O)N5CCN(C(=O)[C@@H]6C[C@@H](F)CN6)CC5)c(C)c4)nccn23)c(F)c1F [Example 81, (4-(4-((3-(2,3-difluoro-4-methoxyphenyl)imidazo[1,2-a]pyrazin-8-yl)amino)-2-methylbenzoyl)piperazin-1-yl)((2S,4R)-4-fluoropyrrolidin-2-yl)methanone hydrochloride]
85 nM | COc1ccc(-c2cnc3c(Nc4ccc(C(=O)N5CCN(C(=O)[C@@H]6C[C@H](F)CN6)CC5)c(C)c4)nccn23)c(F)c1F [Example 83, (4-(4-((3-(2,3-difluoro-4-methoxyphenyl)imidazo[1,2-a]pyrazin-8-yl)amino)-2-methylbenzoyl)piperazin-1-yl)((2S,4S)-4-fluoropyrrolidin-2-yl)methanone hydrochloride]
166 nM | Cc1cc(Nc2nccn3c(-c4ccc(OCC#N)c(F)c4F)cnc23)ccc1C(=O)N1CCC(C(=O)N2CC3(CNC3)C2)CC1 [Example 87, 2-(4-(8-((4-(4-(2,6-diazaspiro[3.3]heptane-2-carbonyl)piperidine-1-carbonyl)-3-methylphenyl)amino)imidazo[1,2-a]pyrazin-3-yl)-2,3-difluorophenoxy)acetonitrile]
195 nM | COc1ccc(-c2cnc3c(Nc4ccc(C(=O)N5CCC(C(=O)NCC(O)CNC(N)=O)CC5)c(C)c4)nccn23)c(F)c1F (stereo not shown) [Example 88, 1-(4-((3-(2,3-difluoro-4-methoxyphenyl)imidazo[1,2-a]pyrazin-8-yl)amino)-2-methylbenzoyl)-N-(2-hydroxy-3-ureidopropyl)piperidine-4-carboxamide]
72 nM | COc1ccc(-c2cnc3c(Nc4ccc(C(=O)N5CCC(C(=O)NCC(O)CN(C)C)CC5)c(C)c4)nccn23)c(F)c1F (stereo not shown) [Example 89, 1-(4-((3-(2,3-difluoro-4-methoxyphenyl)imidazo[1,2-a]pyrazin-8-yl)amino)-2-methylbenzoyl)-N-(3-(dimethylamino)-2-hydroxypropyl)piperidine-4-carboxamide]
116 nM | COc1ccc(-c2cnc3c(Nc4ccc(C(=O)N5CCC(C(=O)NCC(O)CN6CCNCC6)CC5)c(C)c4)nccn23)c(F)c1F (stereo not shown) [Example 90, 1-(4-((3-(2,3-difluoro-4-methoxyphenyl)imidazo[1,2-a]pyrazin-8-yl)amino)-2-methylbenzoyl)-N-(2-hydroxy-3-(piperazin-1-yl)propyl)piperidine-4-carboxamide hydrochloride]
98 nM | COc1ccc(-c2cnc3c(Nc4ccc(C(=O)N5CCN(C(=O)[C@@H]6C[C@@H](O)CN6)CC5)c(C)c4)nccn23)cc1Cl [Example 92, (4-(4-((3-(3-chloro-4-methoxyphenyl)imidazo[1,2-a]pyrazin-8-yl)amino)-2-methylbenzoyl)piperazin-1-yl)((2S,4R)-4-hydroxypyrrolidin-2-yl)methanone hydrochloride]
84 nM | COc1ccc(-c2cnc3c(Nc4ccc(C(=O)N5CCN(C(=O)[C@@H]6C[C@@H](O)CN6)CC5)c(C)c4)nccn23)c(F)c1Cl [Example 93, (4-(4-((3-(3-chloro-2-fluoro-4-methoxyphenyl)imidazo[1,2-a]pyrazin-8-yl)amino)-2-methylbenzoyl)piperazin-1-yl)((2S,4R)-4-hydroxypyrrolidin-2-yl)methanone hydrochloride]
69 nM | Cc1cc(Nc2nccn3c(-c4ccc(OCC#N)c(Cl)c4)cnc23)ccc1C(=O)N1CCN(C(=O)[C@@H]2C[C@@H](O)CN2)CC1 [Example 94, 2-(2-chloro-4-(8-((4-(4-((2S,4R)-4-hydroxypyrrolidin-2-carbonyl)piperazine-1-carbonyl)-3-methylphenyl)amino)imidazo[1,2-a]pyrazin-3-yl)phenoxy)acetonitrile]
33 nM | C#CCOc1ccc(-c2cnc3c(Nc4ccc(C(=O)N5CCC(CN)CC5)c(C)c4)nccn23)c(F)c1F [Example 121, [4-(aminomethyl)-1-piperidyl]-[4-[[3-(2,3-difluoro-4-prop-2-ynoxy-phenyl)imidazo[1,2-a]pyrazin-8-yl]amino]-2-methyl-phenyl]methanone; formic acid]
117 nM | COc1ccc(-c2cnc3c(Nc4ccc(C(=O)N5CCNCC5)c(C)c4)nccn23)c(F)c1F [Example 141, [4-[[3-(2,3-difluoro-4-methoxyphenyl)imidazo[1,2-a]pyrazin-8-yl]amino]-2-methylphenyl]-piperazin-1-ylmethanone]

Structure (SMILES) | IC90
COc1ccc(-c2cnc3c(Nc4ccc(C(=O)N5CCN(C(=O)[C@]6(O)CNCC[C@H]6O)CC5)c(C)c4)nccn23)c(F)c1F (relative stereo) [Example 236, rel-(4-(4-((3-(2,3-difluoro-4-methoxyphenyl)imidazo[1,2-a]pyrazin-8-yl)amino)-2-methylbenzoyl)piperazin-1-yl)((3R,4S)-3,4-dihydroxypiperidin-3-yl)methanone] | 82 nM

same assay, conditions: Acinetobacter baumannii, ATCC17961, 16 h, read-out: ATCC17961 IC90

Structure (SMILES) | IC90
COc1cc(Nc2nccn3c(-c4ccc(OC)c(F)c4F)cnc23)ccc1C(=O)N1CCN(C(=O)[C@H]2C[C@H](O)CN2)CC1 (stereo in doubt) [Example 586, (4-(4-((3-(2,3-difluoro-4-methoxyphenyl)imidazo[1,2-a]pyrazin-8-yl)amino)-2-methoxybenzoyl)piperazin-1-yl)((2R,4S)-4-hydroxypyrrolidin-2-yl)methanone formate] | 312 nM
COc1ccc(-c2cnc3c(Nc4ccc(C(=O)N5CCN(C(=O)[C@H]6NCC[C@H]6O)CC5)c(C)c4)nccn23)c(F)c1F [Example 78, (4-(4-((3-(2,3-difluoro-4-methoxyphenyl)imidazo[1,2-a]pyrazin-8-yl)amino)-2-methylbenzoyl)piperazin-1-yl)((2S,3R)-3-hydroxypyrrolidin-2-yl)methanone hydrochloride] | 87 nM
COC[C@@H]1CN[C@H](C(=O)N2CCN(C(=O)c3ccc(Nc4nccn5c(-c6ccc(OC)c(F)c6F)cnc45)cc3C)CC2)C1 [Example 84, (4-(4-((3-(2,3-difluoro-4-methoxyphenyl)imidazo[1,2-a]pyrazin-8-yl)amino)-2-methylbenzoyl)piperazin-1-yl)((2S,4S)-4-(methoxymethyl)pyrrolidin-2-yl)methanone hydrochloride] | 76 nM
